Where two headings read alike, the source gives them in different places.
Assays:
human recombinant CB1R = human recombinant CB1R (Homo sapiens (Human), UniProt P21554); assay: CB1 receptor binding assay ([3H]CP-55,940 displacement, HEK-293 membranes)
Description: The compounds were evaluated in CB1R and CB2R binding assays using membranes from HEK-293 cells transfected with cDNAs encoding the human recombinant CB1R (Bmax=[…] protein) and human recombinant CB2R (Bmax=[…] protein) (Perkin-Elmer). […]. Compounds were tested following the procedure described by the cell membrane manufacturer. […] CB2R binding assays were carried out with two different buffers: incubation buffer (Tris-HCl, 50 mM; MgCl2, 5 mM; CaCl2 1 mM; BSA, 0.2% at pH 7.4) and washing buffer (Tris-HCl, 50 mM; NaCl 500 mM; BSA, 0.1% at pH 7.4). […] Assays were performed in duplicate and incubated for […] at 37° C. After the incubation, the assay mixture is filtered through 96 GF/C filter plates (Perkin Elmer #6005174) using Perkin Elmer Filtermate Harvester, and then washed four times with ice-cold washing buffer. The filters are dried for 1 hour at 50° C. and [^3H] trapped on filter counted for radioactivity in Perkin Elmer Microscint 20 cocktail (#6013329) using Perkin Elmer MicroBeta2 Reader. […] Data are analyzed and IC50 is calculated using GraphPad Prism 5 and the model “log(inhibitor) vs. response—Variable slope”. The binding affinity of the compounds is Determined by Using the Cheng and Prusoff Equation Ki=IC50/(1+[radioligand]/Kd).

human CB2 receptor = human CB2 receptor (Homo sapiens (Human), UniProt P34972); assay: CB2 receptor binding assay ([3H]CP-55,940 displacement, HEK-293 membranes)
Description: The compounds were evaluated in CB1R and CB2R binding assays using membranes from HEK-293 cells transfected with cDNAs encoding the human recombinant CB1R (Bmax=[…] protein) and human recombinant CB2R (Bmax=[…] protein) (Perkin-Elmer). […] Compounds were tested following the procedure described by the cell membrane manufacturer. […] CB2R binding assays were carried out with two different buffers: incubation buffer (Tris-HCl, 50 mM; MgCl2, 5 mM; CaCl2 1 mM; BSA, 0.2% at pH 7.4) and washing buffer (Tris-HCl, 50 mM; NaCl 500 mM; BSA, 0.1% at pH 7.4). […] Assays were performed in duplicate and incubated for […] at 37° C. […] Data are analyzed and IC50 is calculated using GraphPad Prism 5 and the model “log(inhibitor) vs. response—Variable slope”. The binding affinity of the compounds is Determined by Using the Cheng and Prusoff Equation Ki=IC50/(1+[radioligand]/Kd).

[1] = membranes of HEK-293 cells with human recombinant CB1R, [3H]CP-55,940, class symbols, read-out: CB1 IC50
[2] = membranes of HEK-293 cells with human recombinant CB2R, [3H]CP-55,940, class symbols, read-out: CB2 IC50
[3] = membranes of HEK-293 cells with human recombinant CB1R, [3H]CP-55,940, read-out: CB1 IC50
[4] = membranes of HEK-293 cells with human recombinant CB2R, [3H]CP-55,940, read-out: CB2 IC50

Sequence of human recombinant CB1R (P21554 whole entry): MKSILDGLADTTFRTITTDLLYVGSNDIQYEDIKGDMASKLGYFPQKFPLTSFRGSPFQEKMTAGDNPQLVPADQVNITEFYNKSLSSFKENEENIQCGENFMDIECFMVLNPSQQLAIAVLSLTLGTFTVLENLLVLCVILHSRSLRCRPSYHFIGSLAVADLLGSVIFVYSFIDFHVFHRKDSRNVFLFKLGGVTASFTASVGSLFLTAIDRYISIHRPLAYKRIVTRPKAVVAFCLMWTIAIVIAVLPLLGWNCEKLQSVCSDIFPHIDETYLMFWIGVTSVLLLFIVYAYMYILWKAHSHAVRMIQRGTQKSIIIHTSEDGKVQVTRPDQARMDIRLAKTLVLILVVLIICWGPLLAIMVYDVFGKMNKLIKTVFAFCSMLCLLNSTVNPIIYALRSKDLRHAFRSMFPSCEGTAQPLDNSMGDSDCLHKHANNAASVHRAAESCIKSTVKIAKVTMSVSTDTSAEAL
Sequence of human CB2 receptor (P34972 whole entry): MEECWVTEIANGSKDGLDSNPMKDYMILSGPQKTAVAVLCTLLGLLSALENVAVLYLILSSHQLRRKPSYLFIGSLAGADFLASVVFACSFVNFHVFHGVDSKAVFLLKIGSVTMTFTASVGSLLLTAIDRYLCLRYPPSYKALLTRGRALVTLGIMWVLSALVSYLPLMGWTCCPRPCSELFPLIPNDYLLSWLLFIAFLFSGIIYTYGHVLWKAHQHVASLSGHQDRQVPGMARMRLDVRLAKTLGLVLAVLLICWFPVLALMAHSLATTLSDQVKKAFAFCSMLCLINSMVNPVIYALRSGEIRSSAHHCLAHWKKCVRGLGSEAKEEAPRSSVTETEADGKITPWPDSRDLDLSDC

Compound	IC50 (human recombinant CB1R; [1]) [µM]	IC50 (human CB2 receptor; [2]) [µM]	IC50 (human recombinant CB1R; [3]) [µM]	IC50 (human CB2 receptor; [4]) [µM]	other results
O=C(NC1CC2(CCC2)C1)c1cc2cc(-c3ccc(F)cc3)cnc2n(Cc2ccccn2)c1=O [Compound 106, 6-(4-fluorophenyl)-2-oxo-1-(pyridin-2-ylmethyl)-N-(spiro[3.3]heptan-2-yl)-1,2-dihydro-1,8-naphthyridine-3-carboxamide]	> 1	< 0.1			
Cc1c(C(=O)NC2CC3(CCC3)C2)c(=O)n(Cc2cccc(C#N)c2)c2ncc(Br)cc12 [Compound 78, 6-bromo-1-(3-cyanobenzyl)-4-methyl-2-oxo-N-(spiro[3.3]heptan-2-yl)-1,2-dihydro-1,8-naphthyridine-3-carboxamide]	> 1				IC50 (human CB2 receptor): 0.1 to 0.999 µM
C[C@H]1CC[C@@H](NC(=O)c2c(O)c3cccnc3n(CCN3CCOCC3)c2=O)CC1 [Compound 137, 4-hydroxy-N-((1s, 4s)-4-methylcyclohexyl)-1-(2-morpholinoethyl)-2-oxo-1,2-dihydro-1,8-naphthyridine-3-carboxamide]			> 10	0.015	
C[C@H]1CC[C@@H](NC(=O)c2c(O)c3cc(-c4ccc(F)cc4)ccc3n(CCN3CCOCC3)c2=O)CC1 [Compound 159, 6-(4-fluorophenyl)-4-hydroxy-N-((1s,4S)-4-methylcyclohexyl)-1-(2-morpholinoethyl)-2-oxo-1,2-dihydroquinoline-3-carboxamide]		< 0.1			IC50 (human recombinant CB1R): 0.1 to 0.999 µM
O=C(NC12CC(C1)C2)c1c(O)c2cc(-c3ccc(OC(F)F)cc3)cnc2n(CCN2CCOCC2)c1=O [Compound 12, N-(bicyclo[1.1.1]pentan-1-yl)-6-(4-(difluoromethoxy)phenyl)-4-hydroxy-1-(2-morpholinoethyl)-2-oxo-1,2-dihydro-1,8-naphthyridine-3-carboxamide]	> 1	> 1			
O=C(NC1CC2(CCC2)C1)c1cc2cc(C3CC3)cnc2n(Cc2ccc(F)cc2)c1=O [Compound 93, 6-cyclopropyl-1-(4-fluorobenzyl)-2-oxo-N-(spiro[3.3]heptan-2-yl)-1,2-dihydro-1,8-naphthyridine-3-carboxamide]			> 10	0.0036	
CC(NC(=O)c1cc2cc(-c3ccc(C#N)cn3)cnc2n(CC(C)(C)N2CCOCC2)c1=O)c1ccc(F)cc1 (stereo not shown) [Compound 56, 6-(5-cyanopyridin-2-yl)-N-(1-(4-fluorophenyl)ethyl)-1-(2-methyl-2-morpholinopropyl)-2-oxo-1,2-dihydro-1,8-naphthyridine-3-carboxamide]	> 1	< 0.1			
O=C(NC1CC2(CCC2)C1)c1cc2cc(-c3ccccn3)cnc2n(CCN2CCOCC2)c1=O [Compound 34, 1-(2-morpholinoethyl)-2-oxo-6-(pyridin-2-yl)-N-(spiro[3.3]heptan-2-yl)-1,2-dihydro-1,8-naphthyridine-3-carboxamide]			0.184	0.001	
COc1ccc(-c2ccc3c(c2)c(O)c(C(=O)N[C@H]2CC[C@@H](C)CC2)c(=O)n3CCN2CCOCC2)cc1 [Compound 161, 4-hydroxy-6-(4-methoxyphenyl)-N-((1s,4S)-4-methylcyclohexyl)-1-(2-morpholinoethyl)-2-oxo-1,2-dihydroquinoline-3-carboxamide]	> 1	< 0.1			
CN1CCN(CCn2c(=O)c(C(=O)NC34CC(C3)C4)c(O)c3cc(-c4ccc(F)cc4)cnc32)CC1 [Compound 132, N-(bicyclo[1.1.1]pentan-1-yl)-6-(4-fluorophenyl)-4-hydroxy-1-(2-(4-methylpiperazin-1-yl)ethyl)-2-oxo-1,2-dihydro-1,8-naphthyridine-3-carboxamide]	> 1				IC50 (human CB2 receptor): 0.1 to 0.999 µM
CC(NC(=O)c1c(O)c2cc(-c3ccc(C#N)cn3)cnc2n(Cc2ccc(F)cc2)c1=O)c1ccc(C#N)cc1 (stereo not shown) [Compound 24, N-(1-(4-cyanophenyl)ethyl)-6-(5-cyanopyridin-2-yl)-1-(4-fluorobenzyl)-4-hydroxy-2-oxo-1,2-dihydro-1,8-naphthyridine-3-carboxamide]	> 1	> 1			
C[C@@H](NC(=O)c1cc2cc(Br)cnc2n(Cc2ccc(C#N)cc2)c1=O)c1ccc(F)cc1 [Compound 104, (R)-6-bromo-1-(4-cyanobenzyl)-N-(1-(4-fluorophenyl)ethyl)-2-oxo-1,2-dihydro-1,8-naphthyridine-3-carboxamide]	> 1	< 0.1			
O=C(NC12CC(C1)C2)c1c(O)c2cc(C3CCCC3)cnc2n(CCN2CCOCC2)c1=O [Compound 126, N-(bicyclo[1.1.1]pentan-1-yl)-6-cyclopentyl-4-hydroxy-1-(2-morpholinoethyl)-2-oxo-1,2-dihydro-1,8-naphthyridine-3-carboxamide]	> 1	> 1			
O=C(NC12CCC(C1)C2)c1c(O)c2cc(-c3ccc(F)cc3)cnc2n(CCN2CCOCC2)c1=O [Compound 115, N-(bicyclo[2.1.1]hexan-1-yl)-6-(4-fluorophenyl)-4-hydroxy-1-(2-morpholinoethyl)-2-oxo-1,2-dihydro-1,8-naphthyridine-3-carboxamide]			0.552	0.029	
O=C(NC12CC(C1)C2)c1c(O)c2cc(C3=CCCC3)cnc2n(CCN2CCOCC2)c1=O [Compound 125, N-(bicyclo[1.1.1]pentan-1-yl)-6-(cyclopent-1-en-1-yl)-4-hydroxy-1-(2-morpholinoethyl)-2-oxo-1,2-dihydro-1,8-naphthyridine-3-carboxamide]	> 1				IC50 (human CB2 receptor): 0.1 to 0.999 µM
COc1ccc(-c2cnc3c(c2)cc(C(=O)NC2CCC(F)(F)CC2)c(=O)n3CCN2CCOCC2)cc1 [Compound 27, N-(4,4-difluorocyclohexyl)-6-(4-methoxyphenyl)-1-(2-morpholinoethyl)-2-oxo-1,2-dihydro-1,8-naphthyridine-3-carboxamide]			> 10	0.002	
CC(NC(=O)c1cc2cc(-c3ccc(F)cc3)cnc2n(Cc2ncccn2)c1=O)c1ccc(F)cc1 (stereo not shown) [Compound 65, 6-(4-fluorophenyl)-N-(1-(4-fluorophenyl)ethyl)-2-oxo-1-(pyrimidin-2-ylmethyl)-1,2-dihydro-1,8-naphthyridine-3-carboxamide]	> 1				IC50 (human CB2 receptor): 0.1 to 0.999 µM
C=C(C)c1cnc2c(c1)cc(C(=O)N[C@H](C)c1ccc(F)cc1)c(=O)n2Cc1ccc(F)cc1 [Compound 88, (R)-1-(4-fluorobenzyl)-N-(1-(4-fluorophenyl)ethyl)-2-oxo-6-(prop-1-en-2-yl)-1,2-dihydro-1,8-naphthyridine-3-carboxamide]			> 10	0.0067	
O=C(NC12CC(C1)C2)c1c(O)c2cc(-c3ccncc3)cnc2n(CCN2CCOCC2)c1=O [Compound 124, N-(bicyclo[1.1.1]pentan-1-yl)-4-hydroxy-1-(2-morpholinoethyl)-2-oxo-6-(pyridin-4-yl)-1,2-dihydro-1,8-naphthyridine-3-carboxamide]	> 1	> 1			
CC(NC(=O)c1c(O)c2cc(Br)cnc2n(Cc2ccc(F)cc2)c1=O)c1ccc(F)cc1 (stereo not shown) [Compound 1, 6-bromo-1-(4-fluorobenzyl)-N-(1-(4-fluorophenyl)ethyl)-4-hydroxy-2-oxo-1,2-dihydro-1,8-naphthyridine-3-carboxamide]	> 1				IC50 (human CB2 receptor): 0.1 to 0.999 µM
C[C@@H](NC(=O)c1cc2cc(Br)cnc2n(Cc2ccc(F)cc2)c1=O)c1ccc(F)cc1 [Compound 87, (R)-6-bromo-1-(4-fluorobenzyl)-N-(1-(4-fluorophenyl)ethyl)-2-oxo-1,2-dihydro-1,8-naphthyridine-3-carboxamide]			4.58	0.005	
O=C(NC1CC2(CCC2)C1)c1cc2cc(Br)cnc2n(Cc2cccnc2)c1=O [Compound 96, 6-bromo-2-oxo-1-(pyridin-3-ylmethyl)-N-(spiro[3.3]heptan-2-yl)-1,2-dihydro-1,8-naphthyridine-3-carboxamide]	> 1	< 0.1			
COc1ccc(-c2cnc3c(c2)c(O)c(C(=O)N[C@H]2CC[C@H](C)CC2)c(=O)n3CCN2CCOCC2)cc1 [Compound 148, 4-hydroxy-6-(4-methoxyphenyl)-N-((1R,4R)-4-methylcyclohexyl)-1-(2-morpholinoethyl)-2-oxo-1,2-dihydro-1,8-naphthyridine-3-carboxamide]	> 1	> 1			
